# Data published in patent US20230173086A1, “PEPTIDE CONJUGATES AND THERAPEUTIC AGENTS HAVING IMPROVED PHARMACOLOGICAL AND PHARMACOKINETIC PROPERTIES” (Resolute Bio, Inc., priority 2021, published 2023).
# Like-named read-outs stand apart in the source and are kept apart here.
# Tested on: RBCs
# Description: RBC binding ranked by MESF (molecules of equivalent soluble fluorescence), or intensity of fluorescent signal measured when RBCs were incubated with a given concentration of peptide.
# High=MESF value>1000 fluorescent units
# Medium=MESF Value from 300 to 1000 fluorescent units
# Low=MESF Value from 15 to 300 fluorescent units
# [1] = Table 3, structurally-diverse all-D-peptides
Substance,Classification of RBC binding properties (MESF) [1],also measured
H-ala-pro-met-phe-tyr-trp-lys-his-met-trp-Gly-Gly-Gly-lys(Biotin)-NH2 [Peptide 2f],,"Classification of RBC binding properties (MESF) (Table 2, 1a analogs): Low (MESF Value from 15 to 300 fluorescent units)"
Ac-phe-trp-his-pro-trp-ala-met-met-tyr-lys-Gly-Gly-Gly-lys(Biotin)-NH2 [Peptide 2g],,"Classification of RBC binding properties (MESF) (Table 2, 1a analogs): Does Not Bind (MESF Value below 15 fluorescent units)"
H-tyr-phe-leu-tyr-leu-pro-tyr-his-thr-lys-Gly-Gly-Gly-lys(Biotin)-NH2 [Peptide 3v],Low (MESF Value from 15 to 300 fluorescent units),
H-pro-phe-tyr-thr-tyr-his-trp-tyr-ser-lys-Gly-Gly-Gly-lys(Biotin)-NH2 [Peptide 3p],Does Not Bind (MESF Value below 15 fluorescent units),
H-ala-trp-his-pro-trp-ala-met-met-tyr-lys-Gly-Gly-Gly-lys(Biotin)-NH2 [Peptide 1b],,"Classification of RBC binding properties (MESF) (Table 1, D-Ala scanning of 1a): Low (MESF Value from 15 to 300 fluorescent units)"
H-pro-his-his-pro-phe-ala-leu-phe-leu-lys-Gly-Gly-Gly-lys(Biotin)-NH2 [Peptide 3q],Medium (MESF Value from 300 to 1000 fluorescent units),
H-phe-trp-his-pro-trp-ala-ala-met-tyr-lys-Gly-Gly-Gly-lys(Biotin)-NH2 [ig],,"Classification of RBC binding properties (MESF) (Table 1, D-Ala scanning of 1a): Does Not Bind (MESF Value below 15 fluorescent units)"
H-ser-trp-his-pro-val-trp-Gly-trp-leu-lys-Gly-Gly-Gly-lys(Biotin)-NH2 [Peptide 3g],Low (MESF Value from 15 to 300 fluorescent units),
H-phe-trp-val-pro-phe-trp-trp-lys-thr-lys-Gly-Gly-Gly-lys(Biotin)-NH2 [Peptide 3d],Low (MESF Value from 15 to 300 fluorescent units),
H-phe-phe-his-pro-phe-ala-trp-phe-his-lys-Gly-Gly-Gly-lys(Biotin)-NH2 [Peptide 3h],Low (MESF Value from 15 to 300 fluorescent units),
H-phe-trp-his-pro-trp-phe-phe-lys-thr-lys-Gly-Gly-Gly-lys(Biotin)-NH2 [Peptide 3c],Low (MESF Value from 15 to 300 fluorescent units),
H-phe-phe-his-pro-tyr-Gly-leu-phe-val-lys-Gly-Gly-Gly-lys(Biotin)-NH2 [Peptide 3b],Medium (MESF Value from 300 to 1000 fluorescent units),
H-phe-ala-his-pro-trp-ala-met-met-tyr-lys-Gly-Gly-Gly-lys(Biotin)-NH2 [Peptide 1c],,"Classification of RBC binding properties (MESF) (Table 1, D-Ala scanning of 1a): Does Not Bind (MESF Value below 15 fluorescent units)"
H-trp-tyr-leu-pro-pro-leu-trp-his-ala-lys-Gly-Gly-Gly-lys(Biotin)-NH2 [Peptide 3u],Does Not Bind (MESF Value below 15 fluorescent units),
